Measured values taken from ChEMBL document CHEMBL1268814, “Synthesis and biological evaluation of bivalent ligands for the cannabinoid 1 receptor” (J Med Chem, 2010).
Calls of active or inactive are those of the source. The rule behind the calls is not given here.

Molecular target: T1, Cannabinoid receptor 1 (Homo sapiens, UniProt P21554)
Test: not given
Settings: CHO

T1 sequence (P21554 whole entry): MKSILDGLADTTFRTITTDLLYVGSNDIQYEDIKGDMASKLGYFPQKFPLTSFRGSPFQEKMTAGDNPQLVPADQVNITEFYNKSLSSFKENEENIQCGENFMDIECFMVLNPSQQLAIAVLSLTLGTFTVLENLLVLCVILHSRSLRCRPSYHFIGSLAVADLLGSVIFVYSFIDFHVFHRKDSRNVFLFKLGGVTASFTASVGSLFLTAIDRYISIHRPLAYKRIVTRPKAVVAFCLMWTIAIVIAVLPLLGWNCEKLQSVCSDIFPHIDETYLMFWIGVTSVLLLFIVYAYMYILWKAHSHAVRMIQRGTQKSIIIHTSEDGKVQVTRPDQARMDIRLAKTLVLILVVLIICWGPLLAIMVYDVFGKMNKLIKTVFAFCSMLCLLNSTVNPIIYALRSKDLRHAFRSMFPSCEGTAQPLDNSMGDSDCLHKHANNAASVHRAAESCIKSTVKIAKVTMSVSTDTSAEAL

Structure (SMILES) | Ke
Cc1c(C(=O)NCCCCCCCCCNCCCCCCCCCN)nn(-c2ccc(Cl)cc2Cl)c1-c1ccc(Cl)cc1 | 31.6 nM
Cc1c(C(=O)NCCCNCCCN)nn(-c2ccc(Cl)cc2Cl)c1-c1ccc(Cl)cc1 | inactive
Cc1c(C(=O)NCCCCCCCCCCCN(C)CCCCCCCCCCCN)nn(-c2ccc(Cl)cc2Cl)c1-c1ccc(Cl)cc1 | 206 nM
Cc1c(C(=O)NCCCCCCCCCN(C)CCCCCCCCCNC(=O)c2nn(-c3ccc(Cl)cc3Cl)c(-c3ccc(Cl)cc3)c2C)nn(-c2ccc(Cl)cc2Cl)c1-c1ccc(Cl)cc1 | inactive
Cc1c(C(=O)NCCCCCN(C)CCCCCNC(=O)c2nn(-c3ccc(Cl)cc3Cl)c(-c3ccc(Cl)cc3)c2C)nn(-c2ccc(Cl)cc2Cl)c1-c1ccc(Cl)cc1 | 108 nM

Molecular target: T1, Cannabinoid receptor 1
Test: Antagonist activity at human brain CB1 receptor assessed as inhibition for [35S]GTPgammaS binding
Assay type: functional
Settings: not given

Structure (SMILES) | EC50 [nM]
Cc1c(C(=O)NCCCCCCCCCN(C)CCCCCCCCCNC(=O)c2nn(-c3ccc(Cl)cc3Cl)c(-c3ccc(Cl)cc3)c2C)nn(-c2ccc(Cl)cc2Cl)c1-c1ccc(Cl)cc1 | 161
Cc1c(C(=O)NCCCCCN(C)CCCCCNC(=O)c2nn(-c3ccc(Cl)cc3Cl)c(-c3ccc(Cl)cc3)c2C)nn(-c2ccc(Cl)cc2Cl)c1-c1ccc(Cl)cc1 | 59.8

Molecular target: T1, Cannabinoid receptor 1
Test: biochemical
Assay type: cell-based, HEK293
Settings: not given

Structure (SMILES) | Ki [nM]
Cc1c(C(=O)NCCCCCCCCCNCCCCCCCCCN)nn(-c2ccc(Cl)cc2Cl)c1-c1ccc(Cl)cc1 | 5.44
Cc1c(C(=O)NCCCNCCCN)nn(-c2ccc(Cl)cc2Cl)c1-c1ccc(Cl)cc1 | > 2500
Cc1c(C(=O)NCCCCCCCCCCCN(C)CCCCCCCCCCCN)nn(-c2ccc(Cl)cc2Cl)c1-c1ccc(Cl)cc1 | 5.51
Cc1c(C(=O)NCCCCCCCCCN(C)CCCCCCCCCNC(=O)c2nn(-c3ccc(Cl)cc3Cl)c(-c3ccc(Cl)cc3)c2C)nn(-c2ccc(Cl)cc2Cl)c1-c1ccc(Cl)cc1 | 94.1
Cc1c(C(=O)NCCCCCN(C)CCCCCNC(=O)c2nn(-c3ccc(Cl)cc3Cl)c(-c3ccc(Cl)cc3)c2C)nn(-c2ccc(Cl)cc2Cl)c1-c1ccc(Cl)cc1 | 6.35

Molecular target: Cannabinoid receptor 1 (Rattus norvegicus) (UniProt P20272)
Test: Antagonist activity at rat brain CB1 receptor assessed as inhibition of [35S]GTPgammaS binding at 10000 nM
Assay type: functional
Settings: not given

Sequence of Cannabinoid receptor 1 (Rattus norvegicus) (P20272 whole entry): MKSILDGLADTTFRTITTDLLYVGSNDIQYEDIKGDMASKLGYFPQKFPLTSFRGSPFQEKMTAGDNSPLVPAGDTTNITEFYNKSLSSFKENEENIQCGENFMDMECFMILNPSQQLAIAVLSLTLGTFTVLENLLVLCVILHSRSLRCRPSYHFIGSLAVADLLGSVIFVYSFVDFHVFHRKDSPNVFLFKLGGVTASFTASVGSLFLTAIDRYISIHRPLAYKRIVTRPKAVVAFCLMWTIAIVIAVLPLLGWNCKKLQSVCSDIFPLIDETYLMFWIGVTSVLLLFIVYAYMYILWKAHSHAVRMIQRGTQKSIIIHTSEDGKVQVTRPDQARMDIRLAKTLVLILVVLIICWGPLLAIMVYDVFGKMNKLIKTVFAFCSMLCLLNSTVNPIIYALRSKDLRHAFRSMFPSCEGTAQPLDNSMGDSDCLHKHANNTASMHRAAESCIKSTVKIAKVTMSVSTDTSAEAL

Structure (SMILES) | Emax [%]
Cc1c(C(=O)NCCCCCCCCCNCCCCCCCCCN)nn(-c2ccc(Cl)cc2Cl)c1-c1ccc(Cl)cc1 | -65.2
Cc1c(C(=O)NCCCNCCCN)nn(-c2ccc(Cl)cc2Cl)c1-c1ccc(Cl)cc1 | -34.8
Cc1c(C(=O)NCCCCCCCCCCCN(C)CCCCCCCCCCCN)nn(-c2ccc(Cl)cc2Cl)c1-c1ccc(Cl)cc1 | -49.3
Cc1c(C(=O)NCCCCCN(C)CCCCCNC(=O)c2nn(-c3ccc(Cl)cc3Cl)c(-c3ccc(Cl)cc3)c2C)nn(-c2ccc(Cl)cc2Cl)c1-c1ccc(Cl)cc1 | -3.8

Molecular target: T1, Cannabinoid receptor 1
Test: Antagonist activity at human brain CB1 receptor assessed as inhibition for [35S]GTPgammaS binding at 10000 nM
Assay type: functional
Settings: not given

Structure (SMILES) | Emax [%]
Cc1c(C(=O)NCCCCCCCCCN(C)CCCCCCCCCNC(=O)c2nn(-c3ccc(Cl)cc3Cl)c(-c3ccc(Cl)cc3)c2C)nn(-c2ccc(Cl)cc2Cl)c1-c1ccc(Cl)cc1 | -23
Cc1c(C(=O)NCCCCCN(C)CCCCCNC(=O)c2nn(-c3ccc(Cl)cc3Cl)c(-c3ccc(Cl)cc3)c2C)nn(-c2ccc(Cl)cc2Cl)c1-c1ccc(Cl)cc1 | -13.1

Molecular target: Cannabinoid receptor 1 (Rattus norvegicus, UniProt P20272)
Test: Antagonist activity at rat brain CB1 receptor assessed as inhibition of [35S]GTPgammaS binding
Assay type: functional
Settings: not given

Sequence of Cannabinoid receptor 1 (Rattus norvegicus, UniProt P20272) (P20272 whole entry): as the sequence (P20272 whole entry) above

Structure (SMILES) | EC50 [nM]
Cc1c(C(=O)NCCCCCCCCCNCCCCCCCCCN)nn(-c2ccc(Cl)cc2Cl)c1-c1ccc(Cl)cc1 | 2390
Cc1c(C(=O)NCCCNCCCN)nn(-c2ccc(Cl)cc2Cl)c1-c1ccc(Cl)cc1 | > 10000
Cc1c(C(=O)NCCCCCCCCCCCN(C)CCCCCCCCCCCN)nn(-c2ccc(Cl)cc2Cl)c1-c1ccc(Cl)cc1 | 8770
Cc1c(C(=O)NCCCCCCCCCN(C)CCCCCCCCCNC(=O)c2nn(-c3ccc(Cl)cc3Cl)c(-c3ccc(Cl)cc3)c2C)nn(-c2ccc(Cl)cc2Cl)c1-c1ccc(Cl)cc1 | > 10000
Cc1c(C(=O)NCCCCCN(C)CCCCCNC(=O)c2nn(-c3ccc(Cl)cc3Cl)c(-c3ccc(Cl)cc3)c2C)nn(-c2ccc(Cl)cc2Cl)c1-c1ccc(Cl)cc1 | 1.78

Molecular target: Cannabinoid receptor 2 (Homo sapiens, UniProt P34972)
Test: Displacement of [3H]CP55940 from human CB2 receptor expressed in CHOK1 cells
Assay type: cell-based, CHO-K1
Settings: not given

Sequence of Cannabinoid receptor 2 (P34972 whole entry): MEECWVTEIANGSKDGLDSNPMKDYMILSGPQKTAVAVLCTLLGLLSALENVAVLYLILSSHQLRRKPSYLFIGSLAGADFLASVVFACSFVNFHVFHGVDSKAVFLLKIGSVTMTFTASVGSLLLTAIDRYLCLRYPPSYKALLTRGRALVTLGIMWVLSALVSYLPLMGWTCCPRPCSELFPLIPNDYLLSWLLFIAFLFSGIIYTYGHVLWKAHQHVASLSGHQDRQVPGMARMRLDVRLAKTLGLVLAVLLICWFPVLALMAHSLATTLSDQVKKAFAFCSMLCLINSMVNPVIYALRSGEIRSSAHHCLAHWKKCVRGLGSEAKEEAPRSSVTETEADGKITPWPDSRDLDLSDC

Structure (SMILES) | Ki [nM]
Cc1c(C(=O)NCCCCCCCCCNCCCCCCCCCN)nn(-c2ccc(Cl)cc2Cl)c1-c1ccc(Cl)cc1 | 419
Cc1c(C(=O)NCCCNCCCN)nn(-c2ccc(Cl)cc2Cl)c1-c1ccc(Cl)cc1 | > 2500
Cc1c(C(=O)NCCCCCCCCCCCN(C)CCCCCCCCCCCN)nn(-c2ccc(Cl)cc2Cl)c1-c1ccc(Cl)cc1 | 426
Cc1c(C(=O)NCCCCCN(C)CCCCCNC(=O)c2nn(-c3ccc(Cl)cc3Cl)c(-c3ccc(Cl)cc3)c2C)nn(-c2ccc(Cl)cc2Cl)c1-c1ccc(Cl)cc1 | 1040

Molecular target: T1, Cannabinoid receptor 1
Test: Displacement of [3H]CP55940 from human CB1 receptor expressed in HEK293 cells
Assay type: cell-based
Settings: not given

Structure (SMILES) | Ki [nM]
Cc1c(C(=O)NCCCCCCCCCNCCCCCCCCCN)nn(-c2ccc(Cl)cc2Cl)c1-c1ccc(Cl)cc1 | 14
Cc1c(C(=O)NCCCNCCCN)nn(-c2ccc(Cl)cc2Cl)c1-c1ccc(Cl)cc1 | > 2500
Cc1c(C(=O)NCCCCCCCCCCCN(C)CCCCCCCCCCCN)nn(-c2ccc(Cl)cc2Cl)c1-c1ccc(Cl)cc1 | 14.7
Cc1c(C(=O)NCCCCCCCCCN(C)CCCCCCCCCNC(=O)c2nn(-c3ccc(Cl)cc3Cl)c(-c3ccc(Cl)cc3)c2C)nn(-c2ccc(Cl)cc2Cl)c1-c1ccc(Cl)cc1 | 247
Cc1c(C(=O)NCCCCCN(C)CCCCCNC(=O)c2nn(-c3ccc(Cl)cc3Cl)c(-c3ccc(Cl)cc3)c2C)nn(-c2ccc(Cl)cc2Cl)c1-c1ccc(Cl)cc1 | 38.7

Molecular target: T1, Cannabinoid receptor 1
Test: Antagonist activity at human brain CB1 receptor by calcium mobilization assay
Assay type: functional
Settings: read-out: pA2 (converted)

Structure (SMILES) | Kb [nM]
Cc1c(C(=O)NCCCCCCCCCNCCCCCCCCCN)nn(-c2ccc(Cl)cc2Cl)c1-c1ccc(Cl)cc1 | 5.62
Cc1c(C(=O)NCCCCCCCCCCCN(C)CCCCCCCCCCCN)nn(-c2ccc(Cl)cc2Cl)c1-c1ccc(Cl)cc1 | 23.4
Cc1c(C(=O)NCCCCCCCCCN(C)CCCCCCCCCNC(=O)c2nn(-c3ccc(Cl)cc3Cl)c(-c3ccc(Cl)cc3)c2C)nn(-c2ccc(Cl)cc2Cl)c1-c1ccc(Cl)cc1 | 29.5
Cc1c(C(=O)NCCCCCN(C)CCCCCNC(=O)c2nn(-c3ccc(Cl)cc3Cl)c(-c3ccc(Cl)cc3)c2C)nn(-c2ccc(Cl)cc2Cl)c1-c1ccc(Cl)cc1 | 11
